From patent publication US7041785B1, “B1-bradykinin receptor antagonists and use thereof” (Université de Sherbrooke, priority 1996, dated 2006)
Non-standard residues stand in square brackets, D forms with d. Residues, ends and D or L forms follow the SMILES beside them. Tyr(3,5-I2) = N[C@@H](Cc1cc(I)c(O)c(I)c1)C(=O)O; Oic = O=C(O)[C@@H]1C[C@@H]2CCCC[C@@H]2N1; 2Nal = N[C@@H](Cc1ccc2ccccc2c1)C(=O)O; d2Nal = N[C@H](Cc1ccc2ccccc2c1)C(=O)O; Hyp = O=C(O)[C@@H]1C[C@@H](O)CN1; Tic = O=C(O)[C@@H]1Cc2ccccc2CN1; dTic = O=C(O)[C@H]1Cc2ccccc2CN1; 2Thi = N[C@@H](Cc1cccs1)C(=O)O; Ahx = NCCCCCC(=O)O; Sar = CNCC(=O)O

Molecular target: T1, B2 receptor (Cavia porcellus, UniProt O70526)
T1 sequence (O70526 1-372): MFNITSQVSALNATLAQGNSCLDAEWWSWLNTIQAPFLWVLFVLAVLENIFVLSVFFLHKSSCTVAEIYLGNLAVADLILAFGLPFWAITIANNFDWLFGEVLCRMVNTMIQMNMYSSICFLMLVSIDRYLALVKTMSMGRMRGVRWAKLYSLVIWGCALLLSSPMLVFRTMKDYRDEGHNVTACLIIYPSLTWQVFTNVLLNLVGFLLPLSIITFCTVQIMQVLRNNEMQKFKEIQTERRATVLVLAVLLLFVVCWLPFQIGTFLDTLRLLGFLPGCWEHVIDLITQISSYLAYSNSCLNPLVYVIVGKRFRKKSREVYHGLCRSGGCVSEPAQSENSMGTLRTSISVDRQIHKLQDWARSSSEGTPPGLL
Assay: cell-based
Settings: for G.P.I. pA2: vs BK, Inactive = no detectable antagonistic effect at ≦ 10 μg/ml, F.ag. full agonist, P.ag. partial agonist; for G.P.I. α^E: residual agonistic activity at 10 μg/mL in comparison with BK
Outline: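 Isolated rabbit jugular vein (captopril 1 μmol/L), guinea pig ileum, endothelium-free rabbit aorta and human umbilical vein, in Krebs at 37 °C, with isometric tension recorded. Agonism was tested at 10 μg/mL.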

Row | SMILES | G.P.I. pA2 | G.P.I. α^E | Kb
1 | CC(C)C[C@H](NC(=O)[C@H]1Cc2ccccc2CN1C(=O)[C@H](CO)NC(=O)[C@H](Cc1ccccc1)NC(=O)CNC(=O)[C@@H]1CCCN1C(=O)[C@@H]1CCCN1C(=O)[C@@H](N)CCCNC(=N)N)C(=O)O [Compound 8, (D-Tic^7, Leu^8)desArg^9BK] (H-RPPGFS[dTic]L-OH; N-terminus and C-terminus assumed) | Inactive |  | 
2 | CNCC(=O)N[C@@H](CCCNC(=N)N)C(=O)N1CCC[C@H]1C(=O)N1CCC[C@H]1C(=O)NCC(=O)N[C@@H](Cc1ccccc1)C(=O)N[C@@H](CO)C(=O)N1Cc2ccccc2C[C@@H]1C(=O)N[C@@H](CC(C)C)C(=O)O [Compound 9, Sar(D-Tic^7, Leu^8)desArg^9BK] (H-[Sar]RPPGFS[dTic]L-OH; N-terminus and C-terminus assumed) | Inactive |  | 
3 | CC(C)C[C@H](NC(=O)[C@H]1Cc2ccccc2CN1C(=O)[C@H](CO)NC(=O)[C@H](Cc1ccccc1)NC(=O)CNC(=O)[C@@H]1CCCN1C(=O)[C@@H]1CCCN1C(=O)[C@H](CCCNC(=N)N)NC(=O)[C@H](N)CCCNC(=N)N)C(=O)O [Compound 12, D-Arg(D-Tic^7, Leu^8)desArg^9BK] (H-[dR]RPPGFS[dTic]L-OH; N-terminus and C-terminus assumed) | Inactive |  | 
4 | CC[C@H](C)[C@H](NC(=O)[C@H]1Cc2ccccc2CN1C(=O)[C@H](CO)NC(=O)[C@H](Cc1ccccc1)NC(=O)CNC(=O)[C@@H]1CCCN1C(=O)[C@@H]1CCCN1C(=O)[C@H](CCCNC(=N)N)NC(=O)[C@H](N)CCCNC(=N)N)C(=O)O [Compound 13, D-Arg(D-Tic^7, Ile^8)desArg^9BK] (H-[dR]RPPGFS[dTic]I-OH; N-terminus and C-terminus assumed) | Inactive |  | 
5 | CC[C@H](C)[C@H](NC(=O)[C@@H]1Cc2ccccc2CN1C(=O)[C@H](CO)NC(=O)[C@H](Cc1ccccc1)NC(=O)CNC(=O)[C@@H]1CCCN1C(=O)[C@@H]1CCCN1C(=O)[C@H](CCCNC(=N)N)NC(=O)[C@H](N)CCCNC(=N)N)C(=O)O [Compound 14, D-Arg(L-Tic^7, Ile^8)desArg^9BK] (H-[dR]RPPGFS[Tic]I-OH; N-terminus and C-terminus assumed) | Inactive |  | 
6 | CC(C)C[C@H](NC(=O)[C@H]1Cc2ccccc2CN1C(=O)[C@H](CO)NC(=O)[C@H](Cc1ccccc1)NC(=O)CNC(=O)[C@@H]1C[C@@H](O)CN1C(=O)[C@@H]1CCCN1C(=O)[C@H](CCCNC(=N)N)NC(=O)[C@H](N)CCCNC(=N)N)C(=O)O [Compound 17, D-Arg(Hyp^3, D-Tic^7, Leu^8)desArg^9BK] (H-[dR]RP[Hyp]GFS[dTic]L-OH; N-terminus and C-terminus assumed) | Inactive |  | 
7 | CC(=O)N[C@@H](CCCCN)C(=O)N[C@@H](CCCNC(=N)N)C(=O)N1CCC[C@H]1C(=O)N1CCC[C@H]1C(=O)NCC(=O)N[C@@H](Cc1ccccc1)C(=O)N[C@@H](CO)C(=O)N[C@H](Cc1ccc2ccccc2c1)C(=O)N[C@@H](CC(C)C)C(=O)O [Compound 18, AcLys(D-βNal^7, Leu^8)desArg^9BK] (Ac-KRPPGFS[d2Nal]L-OH; C-terminus assumed) | Inactive | 0 | 
8 | CC[C@H](C)[C@H](NC(=O)[C@H](Cc1ccc2ccccc2c1)NC(=O)[C@H](CO)NC(=O)[C@H](Cc1ccccc1)NC(=O)CNC(=O)[C@@H]1CCCN1C(=O)[C@@H]1CCCN1C(=O)[C@H](CCCNC(=N)N)NC(=O)[C@H](CCCCN)NC(C)=O)C(=O)O [Compound 20, AcLys(L-βNal^7, Ile^8)desArg^9BK] (Ac-KRPPGFS[2Nal]I-OH; C-terminus assumed) | Inactive | 0.06 | 
9 | CC(C)C[C@H](NC(=O)[C@@H](Cc1ccc2ccccc2c1)NC(=O)[C@H](CO)NC(=O)[C@H](Cc1ccccc1)NC(=O)CNC(=O)[C@@H]1CCCN1C(=O)[C@@H]1CCCN1C(=O)[C@H](CCCNC(=N)N)NC(=O)[C@H](N)CCCNC(=N)N)C(=O)O [Compound 24, D-Arg(D-βNal^7, Leu^8)desArg^9BK] (H-[dR]RPPGFS[d2Nal]L-OH; N-terminus and C-terminus assumed) | Inactive |  | 
10 | CC(=O)N[C@@H](Cc1ccc(O)cc1)C(=O)NCCCCCC(=O)N[C@@H](CCCCN)C(=O)N[C@@H](CCCNC(=N)N)C(=O)N1CCC[C@H]1C(=O)N1CCC[C@H]1C(=O)NCC(=O)N[C@@H](Cc1ccccc1)C(=O)N[C@@H](CO)C(=O)N1CCC[C@H]1C(=O)N[C@@H](CC(C)C)C(=O)O [Compound 27, AcTyrεAhxLys(Leu^8)desArg^9BK] | P.ag. | 0.30 | 
11 | CNCC(=O)N[C@@H](Cc1ccc(O)cc1)C(=O)NCCCCCC(=O)N[C@@H](CCCCN)C(=O)N[C@@H](CCCNC(=N)N)C(=O)N1CCC[C@H]1C(=O)N1CCC[C@H]1C(=O)NCC(=O)N[C@@H](Cc1ccccc1)C(=O)N[C@@H](CO)C(=O)N1CCC[C@H]1C(=O)N[C@@H](CC(C)C)C(=O)O [Compound 28, SarTyrεAhxLys(Leu^8)desArg^9BK] | Inactive |  | 
12 | CC[C@H](C)[C@H](NC(=O)[C@@H](Cc1ccc2ccccc2c1)NC(=O)[C@H](CO)NC(=O)[C@H](Cc1ccccc1)NC(=O)CNC(=O)[C@@H]1CCCN1C(=O)[C@@H]1CCCN1C(=O)[C@H](CCCNC(=N)N)NC(=O)[C@H](CCCCN)NC(=O)CCCCCNC(=O)[C@H](Cc1ccc(O)cc1)NC(=O)CNC)C(=O)O [Compound 29, SarTyrεAhxLys(D-βNal^7, Ile^8)desArg^9BK] (H-[Sar]Y[Ahx]KRPPGFS[d2Nal]I-OH; N-terminus and C-terminus assumed) | Inactive |  | 
13 | CC[C@H](C)[C@H](NC(=O)[C@@H](Cc1ccc2ccccc2c1)NC(=O)[C@H](CO)NC(=O)[C@H](Cc1ccccc1)NC(=O)CNC(=O)[C@@H]1CCCN1C(=O)[C@@H]1CCCN1C(=O)[C@H](CCCNC(=N)N)NC(=O)[C@H](CCCCN)NC(=O)CCCCCNC(=O)[C@H](Cc1cc(I)c(O)c(I)c1)NC(=O)CNC)C(=O)O [Compound 30, SarTyr(3,5-I)εAhxLys(D-βNal^7, Ile^8)desArg^9BK] (H-[Sar][Tyr(3,5-I2)][Ahx]KRPPGFS[d2Nal]I-OH; N-terminus and C-terminus assumed) | Inactive |  | 
14 | N=C(N)NCCC[C@@H](N)C(=O)N[C@@H](CCCNC(=N)N)C(=O)N1CCC[C@H]1C(=O)N1C[C@H](O)C[C@H]1C(=O)NCC(=O)N[C@@H](Cc1cccs1)C(=O)N[C@@H](CO)C(=O)N1Cc2ccccc2C[C@@H]1C(=O)N1[C@H](C(=O)O)C[C@@H]2CCCC[C@@H]21 [Compound 31, D-Arg(Hyp^3, Thi^5, D-Tic^7, Oic^8)desArg^9BK, reference compound] (H-[dR]RP[Hyp]G[2Thi]S[dTic][Oic]-OH; N-terminus and C-terminus assumed) |  |  | > 7.59 µM
